Active and inactive are the calls of the source. The calls are words filed in the database; no cut-off is given here.

The values that follow come from ChEMBL document CHEMBL4414590, “Discovery of SIAIS178 as an Effective BCR-ABL Degrader by Recruiting Von Hippel-Lindau (VHL) E3 Ubiquitin Ligase” (J Med Chem, 2019).

Data set [1] concerns the target T1, Bcr/Abl fusion protein (Homo sapiens) (UniProt P00519+P11274). In words: Inhibition of BCR-ABL in human K562 cells assessed as reduction in STAT5 phosphorylation at 1 to 100 nM by Western blot analysis. In kind it is cell-based. On the technique in general: In western blotting, separated proteins are transferred to a membrane and probed.
The next data set has as its system Mus musculus. Put plainly: Inhibition of BCR-ABL phosphorylation in NOD/SCID mouse xenografted with luciferse expressing human K562 cells at 5 to 15 mg/kg, ip QD for 4 days by Western blotting analysis. It counts as functional, organism-based. (Xenograft models place foreign cells or tissue in a host animal.)
Data set [2] concerns the target T2, von Hippel-Lindau disease tumor suppressor/Tyrosine-protein kinase ABL1/Breakpoint cluster region protein (Homo sapiens, UniProt P00519+P11274+P40337). In words: Protac activity against VHL/BCR-ABL in NOD/SCID mouse xenografted with luciferse expressing human K562 cells assessed as induction of BCR-ABL degradation at 15 mg/kg, ip QD for 4 days by Western blotting analysis. In kind it is functional, organism-based.
Target sequence in this assay (P00519 whole entry, looked up): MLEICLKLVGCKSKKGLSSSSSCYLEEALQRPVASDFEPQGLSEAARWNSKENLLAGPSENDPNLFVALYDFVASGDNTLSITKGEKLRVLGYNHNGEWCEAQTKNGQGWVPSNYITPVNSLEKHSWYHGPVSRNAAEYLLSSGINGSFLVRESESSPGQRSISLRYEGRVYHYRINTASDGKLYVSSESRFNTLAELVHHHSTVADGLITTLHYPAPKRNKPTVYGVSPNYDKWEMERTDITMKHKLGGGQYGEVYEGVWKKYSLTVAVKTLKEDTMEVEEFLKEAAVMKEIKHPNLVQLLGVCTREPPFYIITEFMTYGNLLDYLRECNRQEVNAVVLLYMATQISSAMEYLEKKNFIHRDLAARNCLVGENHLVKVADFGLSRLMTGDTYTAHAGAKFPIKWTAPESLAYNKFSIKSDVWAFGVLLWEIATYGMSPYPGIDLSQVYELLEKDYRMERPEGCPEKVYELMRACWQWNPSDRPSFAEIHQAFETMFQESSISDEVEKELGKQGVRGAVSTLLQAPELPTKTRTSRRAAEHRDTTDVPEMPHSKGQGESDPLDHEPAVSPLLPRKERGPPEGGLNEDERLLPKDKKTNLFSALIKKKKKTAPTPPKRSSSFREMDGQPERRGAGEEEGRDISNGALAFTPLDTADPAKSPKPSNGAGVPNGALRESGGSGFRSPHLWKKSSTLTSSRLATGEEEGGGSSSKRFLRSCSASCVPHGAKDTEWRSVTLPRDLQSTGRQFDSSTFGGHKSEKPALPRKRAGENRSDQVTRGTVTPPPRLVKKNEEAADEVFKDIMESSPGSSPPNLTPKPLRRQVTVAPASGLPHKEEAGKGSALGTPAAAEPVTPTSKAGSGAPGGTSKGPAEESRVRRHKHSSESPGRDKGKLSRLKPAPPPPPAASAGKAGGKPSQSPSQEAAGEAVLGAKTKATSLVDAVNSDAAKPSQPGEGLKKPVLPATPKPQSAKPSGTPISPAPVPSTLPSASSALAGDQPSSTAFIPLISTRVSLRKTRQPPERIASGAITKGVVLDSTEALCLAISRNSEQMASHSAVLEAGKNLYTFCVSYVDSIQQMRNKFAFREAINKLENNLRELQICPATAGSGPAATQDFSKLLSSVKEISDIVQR
Target sequence in this assay (P11274 whole entry, looked up): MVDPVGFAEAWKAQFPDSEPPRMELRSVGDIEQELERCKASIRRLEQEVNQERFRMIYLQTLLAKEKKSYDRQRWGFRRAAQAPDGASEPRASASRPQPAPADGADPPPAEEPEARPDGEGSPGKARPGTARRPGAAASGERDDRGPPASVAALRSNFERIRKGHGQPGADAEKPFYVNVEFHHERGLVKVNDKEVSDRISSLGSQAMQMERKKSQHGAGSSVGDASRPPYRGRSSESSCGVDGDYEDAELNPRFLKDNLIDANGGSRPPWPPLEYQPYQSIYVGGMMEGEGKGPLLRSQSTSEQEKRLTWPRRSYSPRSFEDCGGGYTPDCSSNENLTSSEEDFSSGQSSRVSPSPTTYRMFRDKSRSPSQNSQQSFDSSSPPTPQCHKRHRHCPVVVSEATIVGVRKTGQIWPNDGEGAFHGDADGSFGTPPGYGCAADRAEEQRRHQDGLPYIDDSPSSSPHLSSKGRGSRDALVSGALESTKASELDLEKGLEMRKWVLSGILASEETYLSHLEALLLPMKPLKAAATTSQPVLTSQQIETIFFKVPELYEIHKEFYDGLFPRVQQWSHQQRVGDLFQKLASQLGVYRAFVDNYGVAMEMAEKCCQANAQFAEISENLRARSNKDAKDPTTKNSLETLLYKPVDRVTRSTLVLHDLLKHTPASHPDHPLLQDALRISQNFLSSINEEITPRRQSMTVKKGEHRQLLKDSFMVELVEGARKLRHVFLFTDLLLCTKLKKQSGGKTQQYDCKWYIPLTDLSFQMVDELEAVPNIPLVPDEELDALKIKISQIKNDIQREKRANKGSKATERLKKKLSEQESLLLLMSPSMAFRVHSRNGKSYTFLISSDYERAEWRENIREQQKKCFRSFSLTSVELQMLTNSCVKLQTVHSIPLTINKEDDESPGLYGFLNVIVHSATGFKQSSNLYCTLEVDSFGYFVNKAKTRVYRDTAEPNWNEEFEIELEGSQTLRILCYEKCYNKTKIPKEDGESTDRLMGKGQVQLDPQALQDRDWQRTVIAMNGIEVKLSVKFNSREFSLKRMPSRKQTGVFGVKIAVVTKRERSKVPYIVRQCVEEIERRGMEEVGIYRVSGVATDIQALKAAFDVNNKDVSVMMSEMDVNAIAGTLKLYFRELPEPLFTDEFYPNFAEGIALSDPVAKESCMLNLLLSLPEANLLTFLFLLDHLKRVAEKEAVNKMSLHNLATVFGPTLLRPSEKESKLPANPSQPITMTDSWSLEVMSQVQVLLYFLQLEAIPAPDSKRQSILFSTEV
Target sequence in this assay (P40337 whole entry, looked up): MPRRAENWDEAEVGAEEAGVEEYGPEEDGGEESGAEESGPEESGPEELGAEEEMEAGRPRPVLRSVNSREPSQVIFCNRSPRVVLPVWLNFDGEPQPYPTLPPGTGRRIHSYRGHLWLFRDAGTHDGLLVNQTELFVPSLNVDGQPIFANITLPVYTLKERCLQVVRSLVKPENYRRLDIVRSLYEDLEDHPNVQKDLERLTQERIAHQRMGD

Data set [3] relates to K562. In words: Antitumor activity against luciferse expressing human K562 cells xenografted in NOD/SCID mouse assessed as attenuation of tumor progression at 5 to 15 mg/kg, ip QD for 12 days by serial volumetric analysis. It counts as functional, organism-based.
Data set [4] has as its target T1, Bcr/Abl fusion protein (Homo sapiens). In words: Inhibition of BCR-ABL phosphorylation in human K562 cells at 1 to 100 nM by Western blot analysis. It counts as cell-based.
The target in data set [5] is T2, von Hippel-Lindau disease tumor suppressor/Tyrosine-protein kinase ABL1/Breakpoint cluster region protein. In words: Induction of ternary complex formation between VHL and BCR-ABL (unknown origin) expressed in HEK293 cells expressing N-terminal BCR-ABL LgBit fusion protein and N-terminal SmBit-VHL fusion protein at 1 uM incubated for 1 hr by NanoBit technology based luciferase complementation assay. It counts as cell-based.
Target sequence in this assay (P00519 whole entry, looked up): as the sequence (P00519 whole entry, looked up) above
Target sequence in this assay (P11274 whole entry, looked up): as the sequence (P11274 whole entry, looked up) above
Target sequence in this assay (P40337 whole entry, looked up): as the sequence (P40337 whole entry, looked up) above

Data set [6] has as its system K562. In words: Induction of cell death in human K562 cells assessed as reduction in cell viability at 20 times IC50 incubated for 12 hrs followed by drug wash-out and incubation in drug-free medium up to 144 hrs by CCK8 assay. It counts as functional, cell-based. (In general: Tetrazolium dyes change colour on reduction, which living cells bring about.)
Data set [7] deals with T2, von Hippel-Lindau disease tumor suppressor/Tyrosine-protein kinase ABL1/Breakpoint cluster region protein. Put plainly: Protac activity against VHL/BCR-ABL in human K562 cells assessed as induction of BCR-ABL degradation at 1 to 100 nM by Western blot analysis. It counts as cell-based.
Target sequence in this assay (P00519 whole entry, looked up): as the sequence (P00519 whole entry, looked up) above
Target sequence in this assay (P11274 whole entry, looked up): as the sequence (P11274 whole entry, looked up) above
Target sequence in this assay (P40337 whole entry, looked up): as the sequence (P40337 whole entry, looked up) above
Data set [8] has as its system K562. In words: Growth inhibition of human K562 cells assessed as reduction in cell density at 20 times IC50 incubated for 12 hrs followed by drug wash-out and incubation in drug-free medium up to 144 hrs by CCK8 assay. It counts as functional, cell-based.
In data set [9] the test system is K562. Put plainly: Growth inhibition of human K562 cells incubated for 2 days by CCK8 assay. It counts as functional, cell-based. Conditions: K562, 48 h.
In data set [10] the target is T2, von Hippel-Lindau disease tumor suppressor/Tyrosine-protein kinase ABL1/Breakpoint cluster region protein. Put plainly: Protac activity against VHL/BCR-ABL in human K562 cells assessed as induction of BCR-ABL degradation by Western blot analysis. It counts as cell-based.
Target sequence in this assay (P00519 whole entry): as the sequence (P00519 whole entry, looked up) above
Target sequence in this assay (P11274 whole entry): as the sequence (P11274 whole entry, looked up) above
Target sequence in this assay (P40337 whole entry): as the sequence (P40337 whole entry, looked up) above
In data set [11] the test system is K562. In words: Antitumor activity against luciferse expressing human K562 cells xenografted in NOD/SCID mouse assessed as attenuation of tumor progression at 5 mg/kg, ip QD for 12 days by serial volumetric analysis. In kind it is functional, organism-based.
For data set [12], the target named is Tyrosine-protein kinase ABL1 (Homo sapiens) (UniProt P00519). In words: Binding affinity to human phosphorylated ABL1 (S229 to K512 residues) expressed in mammalian expression system assessed as residual binding level at 10 uM by Kinomescan method relative to control.
Chain of Tyrosine-protein kinase ABL1 (Homo sapiens) (P00519 whole entry, the tested form may be a part): as the sequence (P00519 whole entry, looked up) above
For data set [13] the target is unchanged. Put plainly: Binding affinity to human non-phosphorylated ABL1 (S229 to K512 residues) expressed in mammalian expression system assessed as residual binding level at 10 uM by Kinomescan method relative to control.
Data set [14] has as its target T2, von Hippel-Lindau disease tumor suppressor/Tyrosine-protein kinase ABL1/Breakpoint cluster region protein. Put plainly: Induction of ternary complex formation between VHL and BCR-ABL (unknown origin) expressed in HEK293 cells expressing N-terminal BCR-ABL LgBit fusion protein and N-terminal SmBit-VHL fusion protein incubated for 1 hr by NanoBit technology based luciferase complementation assay. It counts as cell-based.
Target sequence in this assay (P00519 whole entry, looked up): as above
Target sequence in this assay (P11274 whole entry, looked up): as the sequence (P11274 whole entry, looked up) above
Target sequence in this assay (P40337 whole entry, looked up): as the sequence (P40337 whole entry, looked up) above

Data set [15] can be described thus: Permeability in human Caco2 cells at 10 uM incubated for 120 mins by LC-MS/MS analysis. In kind it is ADME, cell-based. As to conditions: caco-2, 2 h.

T1 sequence (P00519 whole entry, looked up, the tested form may be a part): as the sequence (P00519 whole entry, looked up) above
T1 sequence (P11274 whole entry, looked up, the tested form may be a part): as the sequence (P11274 whole entry, looked up) above

With `Cc1nc(Nc2ncc(C(=O)Nc3c(C)cccc3Cl)s2)cc(N2CCN(C(=O)CCCCCCC(=O)N[C@H](C(=O)N3C[C@@H](O)C[C@H]3C(=O)NCc3ccc(-c4scnc4C)cc3)C(C)(C)C)CC2)n1`, the inhibition entry (in data set [1]; in the data set on Mus musculus; in [4]) was “Active” in each case. The outcome (in data set [2]; with K562 [3]; in data set [5]; with K562 [6]; in data set [7]) was inactive. Besides, the “growth inhibition (GI)” value in the data set with K562 [8] is “inactive”.

In the data set on K562 [9], `Cc1nc(Nc2ncc(C(=O)Nc3c(C)cccc3Cl)s2)cc(N2CCN(C(=O)CNC(=O)CCCC(=O)N[C@H](C(=O)N3C[C@H](O)C[C@H]3C(=O)NCc3ccc(-c4scnc4C)cc3)C(C)(C)C)CC2)n1` returned an IC50 of 68.2 nM.

The compound `Cc1nc(Nc2ncc(C(=O)Nc3c(C)cccc3Cl)s2)cc(N2CCN(C(=O)CCCCNC(=O)CCCCCCCCC(=O)N[C@H](C(=O)N3C[C@H](O)C[C@H]3C(=O)NCc3ccc(-c4scnc4C)cc3)C(C)(C)C)CC2)n1` showed a concentration for half-maximal inhibition (IC50) in the data set with K562 [9] of 72 nM. This IC50 and that of the compound before are within 1.5-fold of each other.

`Cc1nc(Nc2ncc(C(=O)Nc3c(C)cccc3Cl)s2)cc(N2CCN(C(=O)CCCCCOCCOCCOCCCCCC(=O)N[C@H](C(=O)N3C[C@H](O)C[C@H]3C(=O)NCc3ccc(-c4scnc4C)cc3)C(C)(C)C)CC2)n1` showed an IC50 in the data set on K562 [9] of 14.9 nM.

In the data set on K562 [9], `Cc1nc(Nc2ncc(C(=O)Nc3c(C)cccc3Cl)s2)cc(N2CCN(C(=O)CCCc3cn(CCCC(=O)N[C@H](C(=O)N4C[C@H](O)C[C@H]4C(=O)NCc4ccc(-c5scnc5C)cc4)C(C)(C)C)nn3)CC2)n1` gave an IC50 of 12 nM. The IC50 values of the last two compounds are within 1.5-fold of each other.

For `Cc1nc(Nc2ncc(C(=O)Nc3c(C)cccc3Cl)s2)cc(N2CCN(C(=O)CCOCCOCCOCCC(=O)N[C@H](C(=O)N3C[C@H](O)C[C@H]3C(=O)NCc3ccc(-c4scnc4C)cc3)C(C)(C)C)CC2)n1`, the IC50 in the data set on K562 [9] was 3430 nM.

With `Cc1nc(Nc2ncc(C(=O)Nc3c(C)cccc3Cl)s2)cc(N2CCN(C(=O)COCCOCC(=O)N[C@H](C(=O)N3C[C@H](O)C[C@H]3C(=O)NCc3ccc(-c4scnc4C)cc3)C(C)(C)C)CC2)n1`, the IC50 with K562 [9] amounted to 2240 nM.

Regarding `Cc1nc(Nc2ncc(C(=O)Nc3c(C)cccc3Cl)s2)cc(N2CCN(C(=O)CCCCCCCCC(=O)N[C@H](C(=O)N3C[C@H](O)C[C@H]3C(=O)NCc3ccc(-c4scnc4C)cc3)C(C)(C)C)CC2)n1`, the IC50 in the data set on K562 [9] amounted to 14.3 nM. In addition, the DC50 in data set [10] is 10.1 nM.

Consider `Cc1nc(Nc2ncc(C(=O)Nc3c(C)cccc3Cl)s2)cc(N2CCN(C(=O)CCCCC(=O)N[C@H](C(=O)N3C[C@H](O)C[C@H]3C(=O)NCc3ccc(-c4scnc4C)cc3)C(C)(C)C)CC2)n1`, for which the IC50 with K562 [9] was 89 nM. Also, the DC50 in data set [10] amounted to 34.7 nM.

On to `Cc1nc(Nc2ncc(C(=O)Nc3c(C)cccc3Cl)s2)cc(N2CCN(C(=O)CCCCCC(=O)N[C@H](C(=O)N3C[C@H](O)C[C@H]3C(=O)NCc3ccc(-c4scnc4C)cc3)C(C)(C)C)CC2)n1`, for which the IC50 in the data set with K562 [9] amounted to 37.6 nM. Moreover, the DC50 in data set [10] was found to be 17.9 nM.

`Cc1nc(Nc2ncc(C(=O)Nc3c(C)cccc3Cl)s2)cc(N2CCN(C(=O)CCCCCCCCCCCCC(=O)N[C@H](C(=O)N3C[C@H](O)C[C@H]3C(=O)NCc3ccc(-c4scnc4C)cc3)C(C)(C)C)CC2)n1` came in with an IC50 with K562 [9] of 14.4 nM.

`Cc1nc(Nc2ncc(C(=O)Nc3c(C)cccc3Cl)s2)cc(N2CCN(CCO)CC2)n1` [DASATINIB] came in with an IC50 in the data set on K562 [9] of 0.9 nM. Also, in the data set with K562 [11], the outcome was Active. Further, the outcome with K562 [6] was inactive. Further, in the data set on K562 [8], the “growth inhibition (GI)” value is “inactive”.

Take `Cc1nc(Nc2ncc(C(=O)Nc3c(C)cccc3Cl)s2)cc(N2CCN(C(=O)CCCCCCCCCCCCCCC(=O)N[C@H](C(=O)N3C[C@H](O)C[C@H]3C(=O)NCc3ccc(-c4scnc4C)cc3)C(C)(C)C)CC2)n1`: half-maximal inhibition in the data set with K562 [9] (IC50) required 32.3 nM.

In the data set on K562 [9], `Cc1nc(Nc2ncc(C(=O)Nc3c(C)cccc3Cl)s2)cc(N2CCN(CCCCCCOCCOCCOCCCCCC(=O)N[C@H](C(=O)N3C[C@H](O)C[C@H]3C(=O)NCc3ccc(-c4scnc4C)cc3)C(C)(C)C)CC2)n1` gave an IC50 of 3.4 nM.

Turning to `Cc1nc(Nc2ncc(C(=O)Nc3c(C)cccc3Cl)s2)cc(N2CCN(C(=O)CCOCCOCCOCCOCCOCCC(=O)N[C@H](C(=O)N3C[C@H](O)C[C@H]3C(=O)NCc3ccc(-c4scnc4C)cc3)C(C)(C)C)CC2)n1`, the IC50 with K562 [9] worked out at 1610 nM.

In the case of `Cc1nc(Nc2ncc(C(=O)Nc3c(C)cccc3Cl)s2)cc(N2CCN(C(=O)CCOCCOCCC(=O)N[C@H](C(=O)N3C[C@H](O)C[C@H]3C(=O)NCc3ccc(-c4scnc4C)cc3)C(C)(C)C)CC2)n1`, in the data set on K562 [9], the IC50 stood at 670 nM. Compared with the last compound, the IC50 is about 2.4-fold lower.

`Cc1nc(Nc2ncc(C(=O)Nc3c(C)cccc3Cl)s2)cc(N2CCN(C(=O)CCC(=O)N[C@H](C(=O)N3C[C@H](O)C[C@H]3C(=O)NCc3ccc(-c4scnc4C)cc3)C(C)(C)C)CC2)n1` showed an IC50 in the data set with K562 [9] of 78 nM. Further, the DC50 in data set [10] worked out at 611 nM.

Turning to `Cc1nc(Nc2ncc(C(=O)Nc3c(C)cccc3Cl)s2)cc(N2CCN(C(=O)CCOCCOCCOCCOCCC(=O)N[C@H](C(=O)N3C[C@H](O)C[C@H]3C(=O)NCc3ccc(-c4scnc4C)cc3)C(C)(C)C)CC2)n1`, the IC50 in the data set with K562 [9] was determined as 2160 nM.

On to `Cc1nc(Nc2ncc(C(=O)Nc3c(C)cccc3Cl)s2)cc(N2CCN(CCCCCNC(=O)CCCCCCCCC(=O)N[C@H](C(=O)N3C[C@H](O)C[C@H]3C(=O)NCc3ccc(-c4scnc4C)cc3)C(C)(C)C)CC2)n1`, for which half-maximal inhibition in the data set on K562 [9] (IC50) required 6.9 nM.

Turning to `Cc1nc(Nc2ncc(C(=O)Nc3c(C)cccc3Cl)s2)cc(N2CCN(C(=O)CCCC(=O)N[C@H](C(=O)N3C[C@H](O)C[C@H]3C(=O)NCc3ccc(-c4scnc4C)cc3)C(C)(C)C)CC2)n1`, in the data set with K562 [9], 87 nM corresponded to half-maximal inhibition (IC50). Further, the DC50 in data set [10] amounted to 40.2 nM.

In the data set with K562 [9], `Cc1nc(Nc2ncc(C(=O)Nc3c(C)cccc3Cl)s2)cc(N2CCN(C(=O)CCCCCCCC(=O)N[C@H](C(=O)N3C[C@H](O)C[C@H]3C(=O)NCc3ccc(-c4scnc4C)cc3)C(C)(C)C)CC2)n1` registered an IC50 of 22.4 nM. The DC50 in data set [10] was determined as 37.9 nM.

As to `Cc1nc(Nc2ncc(C(=O)Nc3c(C)cccc3Cl)s2)cc(N2CCN(C(=O)COCCOCCOCC(=O)N[C@H](C(=O)N3C[C@H](O)C[C@H]3C(=O)NCc3ccc(-c4scnc4C)cc3)C(C)(C)C)CC2)n1`, the result in [12], in data set [13] and in [14] was Active. Further, the permeability result in data set [15] is recorded as “Permeable”.

As usually defined, the IC50 is the concentration that gives 50% inhibition. Read a low IC50 as higher potency. What is called DC50 is the concentration giving 50% degradation.
